Test results: PubChem BioAssay AID248 (DTP/NCI, 2004)
Several values for one entry are separate records, joined by “and”; a condition that tells them apart may be missing. Identical values can stand only once. Toxic doses and inconclusive results are not listed.

Tested on: L1210 leukemia ip in BDF1 mice, survival T/C
Assay: NCI In Vivo Anticancer Drug Screen. Data for tumor model L1210 Leukemia (intraperitoneal) in B6D2F1 (BDF1) mice
Conditions: higher = longer survival
In short: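 Transplanted-tumor mice were given test agent; controls received vehicle only. Survival readings from the two groups were divided (treated over control).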

[1] = endpoint: mean survival time, dose: 100.0 mg/kg/injection, schedule: Q01DX001 (ip), vehicle: saline

In the case of `CCC1(c2ccccc2)C(=O)NC(=O)NC1=O`, the T/C (endpoint: mean survival time, dose: 75.0 mg/kg/injection, schedule: Q01DX001 (ip), vehicle: saline) was 105 % of control, the T/C (endpoint: mean survival time, dose: 150.0 mg/kg/injection, schedule: Q01DX001 (ip), vehicle: saline) was 100 % of control and the T/C (endpoint: median survival time, dose: 25.0 mg/kg/injection, schedule: Q12HX034 (sc), vehicle: saline) was 106 % of control. The T/C (endpoint: median survival time, dose: 50.0 mg/kg/injection, schedule: Q12HX034 (sc), vehicle: saline) was 100 % of control.
For `Nc1ncns1`, the T/C (endpoint: mean survival time, dose: 66.0 mg/kg/injection, schedule: Q04DX003 (ip), vehicle: saline) was 104 % of control, the T/C (endpoint: mean survival time, dose: 100.0 mg/kg/injection, schedule: Q04DX003 (ip), vehicle: saline) was 117 % of control and the T/C (endpoint: mean survival time, dose: 150.0 mg/kg/injection, schedule: Q04DX003 (ip), vehicle: saline) was 120 % of control.
With `CC(C)CNCc1ccc([N+](=O)[O-])cc1` the T/C (endpoint: mean survival time, dose: 75.0 mg/kg/injection, schedule: Q01DX001 (ip), vehicle: carboxymethylcellulose (CMC)) was 97 % of control and the T/C (endpoint: mean survival time, dose: 150.0 mg/kg/injection, schedule: Q01DX001 (ip), vehicle: carboxymethylcellulose (CMC)) was 95 % of control.
For `NC(Cc1cc(O)c(O)c(S(=O)(=O)c2ccccc2)c1)C(=O)O` (stereo not drawn), the T/C (endpoint: mean survival time, dose: 87.5 mg/kg/injection, schedule: Q01DX009 (ip), vehicle: saline) was 98 % of control, the T/C (endpoint: mean survival time, dose: 175.0 mg/kg/injection, schedule: Q01DX009 (ip), vehicle: saline) was 96 % of control and the T/C (endpoint: mean survival time, dose: 350.0 mg/kg/injection, schedule: Q01DX009 (ip), vehicle: saline) was 107 % of control.
`ClCCN(CCCCCCN(CCCl)Cc1ccccc1)Cc1ccccc1` was tested, and the T/C (endpoint: mean survival time, dose: 2.5 mg/kg/injection, schedule: Q04DX002 (ip), vehicle: Klucel (hydroxypropylcellulose) (HPC)) was 104 % of control and the T/C (endpoint: mean survival time, dose: 5.0 mg/kg/injection, schedule: Q04DX002 (ip), vehicle: Klucel (hydroxypropylcellulose) (HPC)) was 100 % of control.
In the case of `CCS(=O)(=O)C(S(=O)(=O)CC)S(=O)(=O)CC`, the T/C (endpoint: mean survival time, dose: 100.0 mg/kg/injection, schedule: Q01DX001 (ip), vehicle: Klucel (hydroxypropylcellulose) (HPC)) was 102 % of control, the T/C (endpoint: mean survival time, dose: 200.0 mg/kg/injection, schedule: Q01DX001 (ip), vehicle: Klucel (hydroxypropylcellulose) (HPC)) was 91 % of control and the T/C (endpoint: mean survival time, dose: 400.0 mg/kg/injection, schedule: Q01DX001 (ip), vehicle: Klucel (hydroxypropylcellulose) (HPC)) was 96 % of control.
With `COP(=O)(NC12CC3CC(CC(C3)C1)C2)OC` the T/C (endpoint: mean survival time, dose: 100.0 mg/kg/injection, schedule: Q01DX009 (ip), vehicle: Klucel (hydroxypropylcellulose) (HPC)) was 103 % of control, the T/C (endpoint: mean survival time, dose: 100.0 mg/kg/injection, schedule: Q04DX003 (ip), vehicle: Klucel (hydroxypropylcellulose) (HPC)) was 97 % of control and the T/C (endpoint: mean survival time, dose: 200.0 mg/kg/injection, schedule: Q01DX009 (ip), vehicle: Klucel (hydroxypropylcellulose) (HPC)) was 100 % of control. The T/C (endpoint: mean survival time, dose: 200.0 mg/kg/injection, schedule: Q04DX003 (ip), vehicle: Klucel (hydroxypropylcellulose) (HPC)) was 95 % of control, the T/C (endpoint: mean survival time, dose: 400.0 mg/kg/injection, schedule: Q01DX009 (ip), vehicle: Klucel (hydroxypropylcellulose) (HPC)) was 101 % of control and the T/C (endpoint: mean survival time, dose: 400.0 mg/kg/injection, schedule: Q04DX003 (ip), vehicle: Klucel (hydroxypropylcellulose) (HPC)) was 95 % of control.
`NC(CCCO)Cc1cc2ccccc2c2ccccc12` (stereo not drawn) was tested, and the T/C [1] was 101 % of control, the T/C (endpoint: mean survival time, dose: 200.0 mg/kg/injection, schedule: Q01DX001 (ip), vehicle: saline) was 101 % of control and the T/C (endpoint: mean survival time, dose: 400.0 mg/kg/injection, schedule: Q01DX001 (ip), vehicle: saline) was 109 % of control.
For `CC(=O)c1cccc(NC(=O)N2CCN(c3ccccc3)CC2)c1`, the T/C (endpoint: mean survival time, dose: 100.0 mg/kg/injection, schedule: Q01DX009 (ip), vehicle: saline with Tween-80) was 111 % of control and the T/C (endpoint: mean survival time, dose: 200.0 mg/kg/injection, schedule: Q01DX009 (ip), vehicle: saline with Tween-80) was 100 % of control.
In the case of `COc1cc(C=Nc2cc(Cl)c(O)c(Cl)c2)ccc1N(CCCl)CCCl`, the T/C (endpoint: mean survival time, dose: 1.4 mg/kg/injection, schedule: Q01DX009 (ip), vehicle: carboxymethylcellulose (CMC)) was 113 % of control, the T/C (endpoint: mean survival time, dose: 2.1 mg/kg/injection, schedule: Q01DX009 (ip), vehicle: carboxymethylcellulose (CMC)) was 105 % of control and the T/C (endpoint: mean survival time, dose: 5.3 mg/kg/injection, schedule: Q01DX009 (ip), vehicle: carboxymethylcellulose (CMC)) was 112 % of control. The T/C (endpoint: mean survival time, dose: 10.0 mg/kg/injection, schedule: Q01DX009 (ip), vehicle: carboxymethylcellulose (CMC)) was 171 % of control, the T/C (endpoint: mean survival time, dose: 11.1 mg/kg/injection, schedule: Q01DX001 (ip), vehicle: carboxymethylcellulose (CMC)) was 122 % of control and the T/C (endpoint: mean survival time, dose: 12.0 mg/kg/injection, schedule: Q01DX009 (ip), vehicle: carboxymethylcellulose (CMC)) was 110 % of control. For the same molecule, the T/C (endpoint: mean survival time, dose: 16.6 mg/kg/injection, schedule: Q01DX001 (ip), vehicle: carboxymethylcellulose (CMC)) was 116 % of control and 123 % of control, the T/C (endpoint: mean survival time, dose: 18.0 mg/kg/injection, schedule: Q01DX009 (ip), vehicle: carboxymethylcellulose (CMC)) was 88 % of control and the T/C (endpoint: mean survival time, dose: 25.0 mg/kg/injection, schedule: Q01DX001 (ip), vehicle: carboxymethylcellulose (CMC)) was 122 % of control.
In the case of `CCN(CC)c1nc(SCc2ccccc2Cl)ncc1C`, the T/C (endpoint: mean survival time, dose: 100.0 mg/kg/injection, schedule: Q01DX Z (ip), vehicle: methylcellulose (MC)) was 93 % of control and the T/C (endpoint: mean survival time, dose: 200.0 mg/kg/injection, schedule: Q01DX Z (ip), vehicle: methylcellulose (MC)) was 98 % of control.
In the case of `O=[N+]([O-])c1ccc([As+](c2ccccc2)(c2ccccc2)c2ccccc2)cc1`, the T/C (endpoint: mean survival time, dose: 10.0 mg/kg/injection, schedule: Q01DX001 (ip), vehicle: saline) was 88 % of control and the T/C (endpoint: mean survival time, dose: 20.0 mg/kg/injection, schedule: Q01DX001 (ip), vehicle: saline) was 92 % of control.
In the case of `CC1(C)Cc2c(OC(N)=O)cccc2O1`, the T/C (endpoint: mean survival time, dose: 25.0 mg/kg/injection, schedule: Q01DX001 (ip), vehicle: Klucel (hydroxypropylcellulose) (HPC)) was 102 % of control and the T/C (endpoint: mean survival time, dose: 50.0 mg/kg/injection, schedule: Q01DX001 (ip), vehicle: Klucel (hydroxypropylcellulose) (HPC)) was 98 % of control.
`Clc1ccc(CN2CCCN(C3CCCCC3)C2C2CCC=CO2)cc1` (stereo not drawn) was tested, and the T/C [1] was 96 % of control.
In the case of `CC1(C)CC(N=Cc2ccccc2O)CC(C)(C)N1O.CC1(C)CC(N=Cc2ccccc2O)CC(C)(C)N1O.[Ni]`, the T/C (endpoint: mean survival time, dose: 100.0 mg/kg/injection, schedule: Q04DX003 (ip), vehicle: saline with Tween-80) was 100 % of control.
`O=C1NC2c3ccccc3CC12` (stereo not drawn) was tested, and the T/C (endpoint: mean survival time, dose: 100.0 mg/kg/injection, schedule: Q01DX001 (ip), vehicle: saline with Tween-80) was 95 % of control, the T/C (endpoint: mean survival time, dose: 200.0 mg/kg/injection, schedule: Q01DX001 (ip), vehicle: saline with Tween-80) was 92 % of control and the T/C (endpoint: mean survival time, dose: 400.0 mg/kg/injection, schedule: Q01DX001 (ip), vehicle: saline with Tween-80) was 89 % of control.
